Measurements published in patent publication US20020010210A1, “PHARMACEUTICAL PREPARATION AND METHOD FOR TREATING CANCER” (priority 1997, published 2002).
Structures can show the parent of a compound that is named as a salt. Each block holds one molecule with its values, some of them ahead of it.

What was measured:
[1] = system: spontaneous breast cancer rat cells (SST-2); assay: Lung metastasis of implanted SST-2 cells in SHR rats (Example 3); format: in vivo; conditions: 35 days after implantation; for Number of Metastasis Colonies (average), Peroral Administration: 1 mg/rat perorally from day of implantation to day 34; for Number of Metastasis Colonies (average), Subcutaneous Injection: 1 mg/rat subcutaneous injection from day of implantation to day 34
Procedure: 1×100,000 spontaneous breast cancer rat cells (SST-2) were subcutaneously implanted into the back of a rat (SHR rat) (5 rats per group) suffering from spontaneous hypertension. After 35 days, the rats were sacrificed, and the lung weight and the number of colonies formed were measured to examine the degree of metastasis of SST-2 to the lung. The compounds shown in Tables 3 and 4 each was administered perorally or through subcutaneous injection in a dose of 1 mg/rat over the period from the day of implantation to 34 days after implantation. The number of colonies formed was compared with that in the control group not subjected to any treatment, to examine metastasis to the lung.

[2] = system: bovine aortic endothelial BAE-2 cells; assay: Intracellular ascorbic acid cumulative amount in BAE-2 cells (Example 2); format: cell-based; conditions: 5 μM in culturing medium, cultured 20 hours
Procedure: About 6×10^5 bovine aortic endothelial BAE-2 cells (available from Hiroshima Prefecture University) were sowed on a 60 mmφ plate and cultured in a minimum essential culturing medium containing 20% dialyzed bovine fetus serum (available from Moregate) for 2 hours. After displacing with the same culturing medium containing 5 μM (in the case of magnesium ascorbic acid-2-phosphate, 50 μM) of ascorbic acid or a derivative thereof, the cells were further cultured for 20 hours.

[3] = system: spontaneous breast cancer rat cells (SST-2); assay: Lung metastasis of SST-2 in SHR rats, ascorbic acid derivative combined with known anticancer agent (Example 4); format: in vivo
[4] = system: spontaneous breast cancer rat cells (SST-2); assay: as above; format: in vivo; remark: listed apart in the source
Procedure: 1×100,000 spontaneous breast cancer rat cells (SST-2) were subcutaneously implanted into the back of a rat (SHR rat) (5 rats per group) suffering from spontaneous hypertension. After 35 days, the rats were sacrificed, and the number of colonies formed were measured to examine the degree of metastasis of SST-2 to the lung.
The ascorbic acid derivatives used were L-ascorbic acid-2-phosphate-6-palmitate, L-ascorbic acid-6-benzoate (reference compound) and magnesium L-ascorbic acid-2-phosphate.
Each of the groups treated with an ascorbic acid derivative was subjected to a test of administering the ascorbic acid derivative alone and to a test of administering the ascorbic acid derivative in combination with a known anticancer agent as shown in Table 4. Furthermore, tests of administering the anticancer agents alone were conducted. Over the period of from 7 days prior to implantation to 34 days after the implantation, the ascorbic acid derivative was injected through a vein in the tail region at a dose of 1 mg/1 day/rat. Each of the known anticancer agents was perorally administered in a minimum dose by reference to the concentration for a single use case described in the publication, Tyakuhin Yoran (Medical Product Handbook), 4th Edition, pp. 1474-1509, Yakugyo Jiho-Sha (1989), and the number of colonies formed after metastasis was compared.

[5] = ascorbic acid derivative 1 mg/1 day/rat tail vein, day -7 to day 34, known anticancer agent perorally in minimum dose, colonies after 35 days

Molecule: O=C1O[C@H]([C@@H](O)CO)C(O)=C1OP(=O)([O-])[O-].[Mg+2] [Magnesium L-ascorbic acid-2-phosphate]
- Number of Metastasis Colonies (average), Peroral Administration [1]: 89.4
- Number of Metastasis Colonies (average), Subcutaneous Injection [1]: 86.8

- Intracellular Cumulative Amount [2]: 0.0012 Pmole/cell
Molecule: O=C1O[C@H]([C@@H]2COC(c3ccccc3)O2)C(O)=C1O (stereo partly drawn) [L-Ascorbic acid-5,6-O-benzylidene]
- Number of Metastasis Colonies (average), Peroral Administration [1]: 85.8
- Number of Metastasis Colonies (average), Subcutaneous Injection [1]: 84.2

- Intracellular Cumulative Amount [2]: 0.0034 Pmole/cell
Molecule: CCCCCCCCCCCCCCCCCC(=O)OC[C@H](O)[C@H]1OC(=O)C(OP(=O)(O)O)=C1O [L-Ascorbic acid 2-phosphate-6-stearate]
- Number of Metastasis Colonies (average), Peroral Administration [1]: 14.2
- Number of Metastasis Colonies (average), Subcutaneous Injection [1]: 8.2

Molecule: CC(C)(C)C(=O)OC[C@H](O)[C@H]1OC(=O)C(O)=C1OP(=O)(O)O [6-O-Pivaloyl-L-ascorbic acid-3-phosphate]
- Number of Metastasis Colonies (average), Peroral Administration [1]: 89.6
- Number of Metastasis Colonies (average), Subcutaneous Injection [1]: 86.2

Molecule: CCCCCCCCCCCCCCCC(=O)OC[C@H](O)[C@H]1OC(=O)C(O)=C1O [L-Ascorbic acid-6-palmitate]
- Number of Metastasis Colonies (average), Peroral Administration [1]: 85.4
- Number of Metastasis Colonies (average), Subcutaneous Injection [1]: 83.0

Molecule: CCCCCCCCCCCCCCCC(=O)OC[C@H](O)[C@H]1OC(=O)C(OC(=O)CCCCCCCCCCCCCCC)=C1O [L-Ascorbic acid-2,6-dipalmitate]
- Number of Metastasis Colonies (average), Peroral Administration [1]: 89.8
- Number of Metastasis Colonies (average), Subcutaneous Injection [1]: 86.6

Molecule: O=C1O[C@H]([C@@H](O)CO)C(O)=C1O [L-Ascorbic acid]
- Number of Metastasis Colonies (average), Peroral Administration [1]: 90.8
- Number of Metastasis Colonies (average), Subcutaneous Injection [1]: 88.8

Molecule: protamine
- Cancer metastasis inhibitory effect of combination with L-Ascorbic Acid-2-Phosphate-6-Benzoate versus each agent alone ([3]; rat, in vivo): +
- Cancer metastasis inhibitory effect of combination with L-Ascorbic Acid-6-Palmitate versus each agent alone ([3]; rat, in vivo): −
- Cancer metastasis inhibitory effect of combination with L-Ascorbic Acid-2-Phosphate-6-Palmitate versus each agent alone ([4]; rat, in vivo): +

Molecule: CS(=O)(=O)OCCCCOS(C)(=O)=O [bulsfan]
- Cancer metastasis inhibitory effect of combination with L-Ascorbic Acid-2-Phosphate-6-Benzoate versus each agent alone ([3]; rat, in vivo): ±
- Cancer metastasis inhibitory effect of combination with L-Ascorbic Acid-6-Palmitate versus each agent alone ([3]; rat, in vivo): −
- Cancer metastasis inhibitory effect of combination with L-Ascorbic Acid-2-Phosphate-6-Palmitate versus each agent alone ([4]; rat, in vivo): +

Molecule: Platelet Factor-4
- Cancer metastasis inhibitory effect of combination with L-Ascorbic Acid-2-Phosphate-6-Benzoate versus each agent alone ([3]; rat, in vivo): +
- Cancer metastasis inhibitory effect of combination with L-Ascorbic Acid-6-Palmitate versus each agent alone ([3]; rat, in vivo): −
- Cancer metastasis inhibitory effect of combination with L-Ascorbic Acid-2-Phosphate-6-Palmitate versus each agent alone ([4]; rat, in vivo): +

Molecule: O=c1[nH]c(=O)n([C@H]2C[C@H](O)[C@@H](CO)O2)cc1F [floxuridine]
- Cancer metastasis inhibitory effect of combination with L-Ascorbic Acid-2-Phosphate-6-Benzoate versus each agent alone [3, 5]: +
- Cancer metastasis inhibitory effect of combination with L-Ascorbic Acid-6-Palmitate versus each agent alone [3, 5]: −
- Cancer metastasis inhibitory effect of combination with L-Ascorbic Acid-2-Phosphate-6-Palmitate versus each agent alone [4, 5]: +

Molecule: CIZOFERAN
- Cancer metastasis inhibitory effect of combination with L-Ascorbic Acid-2-Phosphate-6-Benzoate versus each agent alone [3, 5]: +
- Cancer metastasis inhibitory effect of combination with L-Ascorbic Acid-6-Palmitate versus each agent alone [3, 5]: −
- Cancer metastasis inhibitory effect of combination with L-Ascorbic Acid-2-Phosphate-6-Palmitate versus each agent alone [4, 5]: +

Molecule: L-asparginase
- Cancer metastasis inhibitory effect of combination with L-Ascorbic Acid-2-Phosphate-6-Benzoate versus each agent alone ([3]; rat, in vivo): +
- Cancer metastasis inhibitory effect of combination with L-Ascorbic Acid-6-Palmitate versus each agent alone ([3]; rat, in vivo): −
- Cancer metastasis inhibitory effect of combination with L-Ascorbic Acid-2-Phosphate-6-Palmitate versus each agent alone ([4]; rat, in vivo): +

Molecule: N=c1ccn2c(n1)O[C@H]1[C@H](O)[C@@H](CO)O[C@H]12 [ANCITABINE hydrochloride]
- Cancer metastasis inhibitory effect of combination with L-Ascorbic Acid-2-Phosphate-6-Benzoate versus each agent alone [3, 5]: +
- Cancer metastasis inhibitory effect of combination with L-Ascorbic Acid-6-Palmitate versus each agent alone [3, 5]: −
- Cancer metastasis inhibitory effect of combination with L-Ascorbic Acid-2-Phosphate-6-Palmitate versus each agent alone [4, 5]: +
